# According to patent US20260007601A1, “IONIZABLE CATIONIC LIPID COMPOUND AND COMPOSITION FOR DELIVERING NUCLEIC ACID AND USE THEREOF” (BEIJING YOUCAREKECHUANG PHARMACEUTICAL TECHNOLOGY CO., LTD., priority 2023, published 2026):
# “And” between values parts separate entries of the source, which are not always exact repeats. Identical values can stand only once.
# How the values were obtained:
# [1] = Encapsulation rate, drug loading concentration and total RNA concentration detection (RiboGreen); format: physicochemical
# 293T cells = assay: Cell survival rate assay (CCK-8); format: cell-based
# Summary of the method: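 293T cells seeded at 10,000 per well and grown overnight, then exposed for 24 h to LNPs (cationic/neutral/structured/PEG lipids 49:10:39.5:1.5) carrying 1.5 μg Fluc-mRNA, or Lipofectamine 3000. Viability read by CCK-8, 1 h incubation, absorbance at 450 nm.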
# female BALB/C mice = assay: Mouse in vivo imaging of Fluc-mRNA LNP formulations; design: average radiation intensity (mRNA expression): unit not given here; details: for average radiation intensity (mRNA expression): 10 μg Fluc-mRNA LNP intramuscularly
# Summary of the method: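 Female BALB/C mice (4–6 weeks, 17–19 g) received LNP carrying 10 μg Fluc-mRNA intramuscularly. Imaging substrate given intraperitoneally at 6 h, 24 h, 48 h and 7 d; after 5 min free movement, average radiance read by IVIS Spectrum imaging.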
# [2] = Particle size and polydispersity index (PDI) of nanolipid particles, dynamic light scattering; format: physicochemical; details: LNP formulation prepared from the named cationic lipid, 25° C
# Protocol: The particle size and polydispersity index (PDI) were determined by dynamic light scattering method using a Malvern laser particle size analyzer. 10 μL of liposome solution was diluted to 1 mL with RNase-free deionized water and added to a sample pool. Each sample was measured three times. The measurement conditions were: 90° scattering angle, 25° C.
# [3] = LNP formulation of the named lipid
compound,measurement,setting,value
CCCCCCCCCCCOC(=O)CCCCCN(CCCCCCCC(=O)OCC(CCCCCCCC)CCCCCCCC)CCN(C)CCO [YK-202],"drug loading concentration, times that of ALC-0315",[1],1.42 times
same,"drug loading concentration, times that of HHMA",[1],1.21 times
same,"drug loading concentration, times that of SM-102",[1],1.46 times
same,"drug loading concentration, times that of YK-009",[1],1.38 times
same,"drug loading concentration, times that of compound 21",[1],1.64 times
same,"drug loading concentration, times that of compound 23",[1],1.79 times
same,"total RNA concentration, times that of ALC-0315",[1],1.16 times
same,"total RNA concentration, times that of HHMA",[1],1.14 times
same,"total RNA concentration, times that of SM-102",[1],1.22 times
same,"total RNA concentration, times that of YK-009",[1],1.11 times
same,"total RNA concentration, times that of compound 21",[1],1.40 times
same,"total RNA concentration, times that of compound 23",[1],1.32 times
same,Drug loading concentration,[1]; [3],37.08 µg/mL
same,Encapsulation rate,[1]; [3],86.3%
same,Total RNA concentration,[1]; [3],42.98 µg/mL
same,encapsulation rate higher than that of ALC-0315,[1]; difference of rates,23.50%
same,encapsulation rate higher than that of HHMA,[1]; difference of rates,25.80%
same,encapsulation rate higher than that of SM-102,[1]; difference of rates,24.00%
same,encapsulation rate higher than that of YK-009,[1]; difference of rates,23.30%
same,encapsulation rate higher than that of compound 21,[1]; difference of rates,28.50%
same,encapsulation rate higher than that of compound 23,[1]; difference of rates,31.10%
same,Cell survival rate,"293T cells; LNP containing 1.5 μg Fluc-mRNA, 24 hours, CCK-8",76.81%
same,cell survival rate higher (cytotoxicity reduced) compared with YK-221,293T cells; difference of rates,55% and 55.86%
same,cell survival rate higher (toxicity lower) than that of YK-204,293T cells; difference of rates,34.24%
same,cell survival rate higher (toxicity lower) than that of YK-225,293T cells; difference of rates,33.40%
same,cell survival rate higher than that of ALC-0315,293T cells; difference of rates,26.85%
same,cell survival rate higher than that of HHMA,293T cells; difference of rates,11.25%
same,cell survival rate higher than that of Lipofectamine 3000,293T cells; difference of rates,53.76%
same,cell survival rate higher than that of SM-102,293T cells; difference of rates,8.26%
same,cell survival rate higher than that of YK-203,293T cells; difference of rates,41.25%
same,cell survival rate higher than that of YK-205,293T cells; difference of rates,17.89%
same,cell survival rate higher than that of YK-208,293T cells; difference of rates,30.13%
same,cell survival rate higher than that of YK-210,293T cells; difference of rates,38.43%
same,cell survival rate higher than that of YK-211,293T cells; difference of rates,24.51%
same,cell survival rate higher than that of YK-212,293T cells; difference of rates,41.55%
same,cell survival rate higher than that of YK-213,293T cells; difference of rates,35.37%
same,cell survival rate higher than that of YK-214,293T cells; difference of rates,51.23% and 50%
same,cell survival rate higher than that of YK-215,293T cells; difference of rates,32.22%
same,cell survival rate higher than that of YK-216,293T cells; difference of rates,31.01%
same,cell survival rate higher than that of YK-217,293T cells; difference of rates,34.54%
same,cell survival rate higher than that of YK-219,293T cells; difference of rates,18.20%
same,cell survival rate higher than that of YK-220,293T cells; difference of rates,17.82%
same,cell survival rate higher than that of YK-222,293T cells; difference of rates,43.06%
same,cell survival rate higher than that of YK-223,293T cells; difference of rates,40.17%
same,cell survival rate higher than that of YK-224,293T cells; difference of rates,53.34%
same,cell survival rate higher than that of YK-226,293T cells; difference of rates,48.91%
same,cell survival rate higher than that of compound 21,293T cells; difference of rates,7.79%
same,cell survival rate higher than that of compound 23,293T cells; difference of rates,6.71%
same,"average radiation intensity, times that of ALC-0315",female BALB/C mice; 6 h,3.48 times
same,"average radiation intensity, times that of HHMA",female BALB/C mice; 6 h,4.59 times
same,"average radiation intensity, times that of SM-102",female BALB/C mice; 6 h,4.32 times
same,"average radiation intensity, times that of compound 21",female BALB/C mice; 6 h,4.89 times
same,"average radiation intensity, times that of compound 23",female BALB/C mice; 6 h,4.94 times
same,"mRNA expression level, times that of YK-204",female BALB/C mice; 6 h,83.29 times
same,"mRNA expression level, times that of YK-223",female BALB/C mice; 6 h,283.49 times
same,average radiation intensity (mRNA expression),female BALB/C mice; 6 h,2935500
same,"expression level, times that of YK-215",female BALB/C mice; 6 hours,58.06 times
same,"expression level, times that of YK-217",female BALB/C mice; 6 hours,119.40 times
same,"average radiation intensity, times that of ALC-0315",female BALB/C mice; 24 h,11.84 times
same,"average radiation intensity, times that of HHMA",female BALB/C mice; 24 h,19.69 times
same,"average radiation intensity, times that of SM-102",female BALB/C mice; 24 h,18.64 times
same,"average radiation intensity, times that of compound 21",female BALB/C mice; 24 h,19.99 times
same,"average radiation intensity, times that of compound 23",female BALB/C mice; 24 h,19.47 times
same,"mRNA expression level, times that of YK-204",female BALB/C mice; 24 h,412.78 times
same,"mRNA expression level, times that of YK-223",female BALB/C mice; 24 h,1208.76 times
same,average radiation intensity (mRNA expression),female BALB/C mice; 24 h,2158840
same,"expression level, times that of YK-215",female BALB/C mice; 24 hours,316.78 times
same,"expression level, times that of YK-217",female BALB/C mice; 24 hours,814.66 times
same,"average radiation intensity, times that of ALC-0315",female BALB/C mice; 48 h,19.80 times
same,"average radiation intensity, times that of HHMA",female BALB/C mice; 48 h,25.64 times
same,"average radiation intensity, times that of SM-102",female BALB/C mice; 48 h,24.71 times
same,"average radiation intensity, times that of compound 21",female BALB/C mice; 48 h,25.15 times
same,"average radiation intensity, times that of compound 23",female BALB/C mice; 48 h,23.54 times
same,"mRNA expression level, times that of YK-204",female BALB/C mice; 48 h,309.43 times
same,"mRNA expression level, times that of YK-223",female BALB/C mice; 48 h,1113.57 times
same,average radiation intensity (mRNA expression),female BALB/C mice; 48 h,755000
same,"expression level, times that of YK-215",female BALB/C mice; 48 hours,207.42 times
same,"expression level, times that of YK-217",female BALB/C mice; 48 hours,737.30 times
same,"average radiation intensity, times that of ALC-0315",female BALB/C mice; 7 d,5.09 times
same,"average radiation intensity, times that of HHMA",female BALB/C mice; 7 d,6.31 times
same,"average radiation intensity, times that of SM-102",female BALB/C mice; 7 d,5.68 times
same,"average radiation intensity, times that of compound 21",female BALB/C mice; 7 d,5.49 times
same,"average radiation intensity, times that of compound 23",female BALB/C mice; 7 d,5.75 times
same,"expression level, times that of YK-215",female BALB/C mice; 7 d,32.87 times
same,"expression level, times that of YK-217",female BALB/C mice; 7 d,64.10 times
same,"mRNA expression level, times that of YK-204",female BALB/C mice; 7 d,44.46 times
same,"mRNA expression level, times that of YK-223",female BALB/C mice; 7 d,76.19 times
same,average radiation intensity (mRNA expression),female BALB/C mice; 7 d,33524
same,"mRNA expression level in mice can reach, times that of SM-102",female BALB/C mice; time point not stated,24 times
same,PDI,[2],23.4%
same,Particle size,[2],173 nm
